{"source": "patent US20040142847A1", "about": "“Detergent tablets with polyurethane coating” (priority 2002, published 2004)", "origin": "cited, not measured here", "key": {"[1]": {"conditions": "for amount of the anhydrous salt that dissolves in 100 g of water: per 100 g of water"}, "[2]": {"conditions": "1% strength solution at 25°"}, "[3]": {"conditions": "after heating the solution at 100° C. for two hours"}, "[4]": {"conditions": "20° C., listing of preferred solubilizers"}, "[5]": {"conditions": "20° C., listing of suitable solubilizers"}, "[6]": {"conditions": "25° C., listing of preferred solubilizers"}}, "note": "Where two headings read alike, the source gives them in different places.", "data": [{"compound": "O=C(O)CC(O)C(=O)O", "note": "(racemic) [DL-Malic acid]", "values": [{"measurement": "solubility in water", "setting": "[1]; 26° C., listing of preferred solubilizers", "result": 1440, "unit": "mg/mL"}, {"measurement": "solubility in water", "setting": "[1]; 26° C., listing of suitable solubilizers", "result": 1440, "unit": "mg/mL"}]}, {"compound": "[Cl-].[Cs+]", "note": "[Cesium chloride]", "values": [{"measurement": "solubility in water", "setting": "[1]; [4]", "result": 1800, "unit": "mg/mL"}, {"measurement": "solubility in water", "setting": "[1]; [5]", "result": 1800, "unit": "mg/mL"}]}, {"compound": "O=C[C@H](O)[C@@H](O)[C@@H](O)[C@H](O)CO", "note": "[D(+)-Galactose]", "values": [{"measurement": "solubility in water", "setting": "[1]; [6]", "result": 680, "unit": "mg/mL"}]}, {"compound": "O=C(CO)[C@@H](O)[C@H](O)[C@@H](O)CO", "note": "[L(−)-sorbose]", "values": [{"measurement": "solubility in water", "setting": "[1]; 17° C., listing of preferred solubilizers", "result": 550, "unit": "mg/mL"}]}, {"compound": "O=C(O)/C=C\\C(=O)O", "note": "[Maleic acid]", "values": [{"measurement": "solubility in water", "setting": "[1]; [6]", "result": 788, "unit": "mg/mL"}]}, {"compound": "[Cl-].[K+]", "note": "[Potassium chloride]", "values": [{"measurement": "solubility in water", "setting": "[1]; [4]", "result": 340, "unit": "mg/mL"}, {"measurement": "solubility in water", "setting": "[1]; [5]", "result": 340, "unit": "mg/mL"}]}, {"compound": "O=P([O-])([O-])OP(=O)([O-])[O-].[K+].[K+].[K+].[K+]", "note": "[Potassium diphosphate]", "values": [{"measurement": "pH of the 1% strength solution", "setting": "[2]", "result": 10.4}]}, {"compound": "NC(N)=O", "note": "[Urea]", "values": [{"measurement": "solubility in water", "setting": "[1]; [4]", "result": 1080, "unit": "mg/mL"}, {"measurement": "solubility in water", "setting": "[1]; [5]", "result": 1080, "unit": "mg/mL"}]}, {"compound": "[Cl-].[Cl-].[Zn+2]", "note": "[Zinc chloride]", "values": [{"measurement": "solubility in water", "setting": "[1]; [4]", "result": 3680, "unit": "mg/mL"}, {"measurement": "solubility in water", "setting": "[1]; [5]", "result": 3680, "unit": "mg/mL"}]}, {"compound": "O=P([O-])([O-])OP(=O)([O-])OP(=O)([O-])[O-].[Na+].[Na+].[Na+].[Na+].[Na+]", "note": "[pentasodium triphosphate]", "values": [{"measurement": "amount of the anhydrous salt that dissolves in 100 g of water", "setting": "[1]; 60°", "result": "about 20 g"}, {"measurement": "amount of the anhydrous salt that dissolves in 100 g of water", "setting": "[1]; 100°", "result": "around 32 g"}, {"measurement": "amount of the anhydrous salt that dissolves in 100 g of water", "setting": "[1]; room temperature", "result": "About 17 g"}, {"measurement": "diphosphate produced by hydrolysis", "setting": "[3]", "result": "~15", "unit": "%"}, {"measurement": "orthophosphate produced by hydrolysis", "setting": "[3]", "result": "about 8%"}]}, {"compound": "Sodium polyphosphate", "values": [{"measurement": "solubility in water", "setting": "[1]; [5]", "result": 1000, "unit": "mg/mL"}]}]}
